Experimental data as given in patent US20050220779A1, “Integrin linked kinase modulation of macrophage activation” (priority 2001, published 2005).

What was measured:
Type in all cases: cell-based, murine
[1] = test system: LPS-IFN-γ stimulated macrophages; experiment: NO production of LPS-IFN-γ stimulated macrophages (cell type not specified; dose response, Table 2 and second Table 3); conditions: LPS-INF-γ stimulated
Description: Treatment of primary macrophages and RAW 264.7 cells. […] Following 3 h incubation, at 37 C, 5% CO2 (macrophages were allowed to attach) cells were stimulated with LPS (0.5 μg/ml) and IFN-γ (100 U/ml) in the absence or presence of various concentrations of ILK inhibitors (all treatments were replicated six times). Cells were incubated for an additional 24 h, and cell free culture supernatants from each well were collected for NO and cytokine determination. The remaining cells were stained with crystal violet to determine effect of the inhibitors on cell survival.
NO production. Following stimulation, the production of NO was determined by assaying culture supernatants for NO2^−, a stable reaction product of NO with molecular oxygen. Briefly, 100 μl of culture supernatant was reacted with an equal volume of Griess reagent at room temperature for 10 min. The absorbance at 550 nm was determined. All measurements were performed six times. The concentration of NO2^−was calculated by comparison with a standard curve prepared using NaNO2.

COX-2 = COX-2 protein expression in LPS-IFN-γ stimulated macrophages (western blot); conditions: Macrophages, LPS-INF-γ stimulated
Description: (§1) Western blot analysis. After incubation with the indicated stimuli in the presence of ILK inhibitors, cells (duplicate samples, 2×10^6cell/6-wells plate) were washed in PBS and lysed on ice in 60 μl of lysis buffer. The protein content of each sample was determined using the Bradford protein assay kit (Bio-Rad, Richmond, Calif.). Absorbance was measured at 750 nm with a Beckman DU530 spectrophotometer (Palo Alto, Calif.). Proteins were mixed with 45×SDS sample buffer. Following separation of proteins by SDS-PAGE, using 8% bis-acrylamide in the separation gel, the proteins were transferred from the gels onto PVDF membranes using a MiniProtean III Cell (Bio-Rad), at 100 V for 1.5 h. Equal amounts of protein (5 μg) were loaded onto SDS-PAGE gels and examined by Western blot analysis with anti-Actin, anti-iNOS, anti-COX-2 murine monoclonal antibodies according to the manufacturers specifications (Transduction Laboratories). […] The Multi-Analyst/PC system from Biorad is being used to quantitate the bands of the expressed protein on the film. […] White light is chosen as the selected light source, thus the signal strength is measured in OD (optic density) units. […]
(§2) Effects of ILK inhibitors on the LPS-IFN-γ-induced iNOS and COX-2 expression NO production requires that iNOS be enzymatically activity, therefore experiments were performed to examine whether the inhibitory effect of ILK inhibitors was mediated by […] iNOS protein synthesis or effects on the activity of existing enzyme. Stimulated cells were treated with ILK inhibitors (25 μM), and lysed 16 h later and a western blot analysis was performed to quantitate iNOS protein expression. […]
Nitric oxide and Prostaglandin E2 are two pleiotropic mediators produced at inflammatory sites by the inducible enzymes iNOS and cyclooxygenase-2 (COX-2), respectively. […] Finally, we evaluated the in-vitro effects of compounds on production of MCP-1 chemokine by TNF-α stimulated HUVEC cells. […]

[2] = test system: IL-6 release in macrophages; experiment: LPS-IFN-γ-induced IL-6 release in macrophages (ELISA); conditions: Mus musculus, Macrophage; 25 μM, 24 h, LPS (0.5 μg) IFN-γ (100 U)
Description: Treatment of primary macrophages and RAW 264.7 cells. Primary macrophages (1.5×10^5 cells/well) and RAW 264.7 (4×10^4 cells/well) cells were grown in 96-well plates (nitrite assay), or 6-well plates (2×10^6 cells/well) for measurement of iNOS and COX-2 expression. Following 3 h incubation, at 37 C, 5% CO2 (macrophages were allowed to attach) cells were stimulated with LPS (0.5 μg/ml) and IFN-γ (100 U/ml) in the absence or presence of various concentrations of ILK inhibitors (all treatments were replicated six times). Cells were incubated for an additional 24 h, and cell free culture supernatants from each well were collected for NO and cytokine determination. The remaining cells were stained with crystal violet to determine effect of the inhibitors on cell survival.
Enzyme immunoassays for mouse IL-6. IL-6 levels were determined with PharMingen's OptElA ELISA set developed using an anti-mouse IL-6 Ab pair and mouse rIL-6 standard (PharMingen). Maxisorp F16 multiwell strips (Nunc, Roskilde, Denmark) were coated with anti-mouse IL-6 capture Ab (at recommended concentration) in 0.1 M NaHCO3, pH 9.5, 100 μl/well, overnight at 4° C. Plates were washed three times with 0.05% Tween 20 in PBS (PBST) and blocked for 1 h at room temperature with 200 μl/well of 10% FCS in PBS (blocking and dilution buffer). […] Absorbance was read at 450 nm with an EL 312e microplate reader. […]

iNOS = iNOS protein expression in LPS-IFN-γ stimulated macrophages (western blot); conditions: Macrophages, LPS-INF-γ stimulated
Description: as §1, with “Laboratories). Primary Abs, in 5% blocking buffer (5% NFM/TTBS), were incubated with blots 2 h or overnight at 4° C., followed by incubation with peroxidase-conjugated secondary antibody. Chemiluminescence substrates were used to reveal positive bands. The bands were exposed on x-ray films.” for “Laboratories).”
as §2

NC1=NN=C(N)C1/N=N/c1ccc(F)c(C(F)(F)F)c1 [4-[(4-fluoro-3-trifluoromethylphenyl)hydrazono]-4H-pyrazole-3,5-diamine]
NO (%) [1]: 74% | COX-2 (%) (COX-2): 67% | inhibition at 25 µM [2]: 63% | INOS (%) (iNOS): 88%
